The supplement of paper PMC10307832

What was measured:
Assay in all cases: relative viability (nuclei count vs DMSO), 5 days (fraction); higher = more cells survive
[1] = compound: C1CSC2=C(C(=O)N1)SC3=C2C=C(C=C3)O [kb NB 142-70] + CS(=O)(=O)N1CCN(Cc2cc3nc(-c4cccc5[nH]ncc45)nc(N4CCOCC4)c3s2)CC1 [Pictilisib] (partner 1 µM)
Outline: (§1)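 Lung cancer cell lines in 1536-well plates were dosed by pin tool the day after seeding, either with one drug alone or with a fixed anchor-drug dose plus five library-drug doses (not always all listed) in √10 steps. After 5 days, cells were fixed and their nuclei stained in one step (final 0.05% Triton X-100, 1% formaldehyde, 1 ug/ml Hoechst), then counted on 4× images. Relative viability is the nuclei count in treated wells divided by that in vehicle wells. Values are medians of duplicate plates.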

[2] = compound: NCC(=O)Nc1ccc(-n2nc(C(F)(F)F)cc2-c2ccc3c(ccc4ccccc43)c2)cc1 + Nc1nc2[nH]cc(CCc3ccc(C(=O)N[C@@H](CCC(=O)O)C(=O)O)cc3)c2c(=O)[nH]1 [Pemetrexed] (partner 0.2 µM)
Outline: as §1

[3] = compound: NCC(=O)Nc1ccc(-n2nc(C(F)(F)F)cc2-c2ccc3c(ccc4ccccc43)c2)cc1 + O=C(c1cc(Cc2n[nH]c(=O)c3ccccc23)ccc1F)N1CCN(C(=O)C2CC2)CC1 [Olaparib] (partner 8 µM)
Outline: as §1

[4] = compound: NCC(=O)Nc1ccc(-n2nc(C(F)(F)F)cc2-c2ccc3c(ccc4ccccc43)c2)cc1 + COc1cc2c(Oc3ccc(NC(=O)C4(C(=O)Nc5ccc(F)cc5)CC4)cc3F)ccnc2cc1OCCCN1CCOCC1 [Foretinib] (partner 0.25 µM)
Outline: as §1

## UMC-11
[1]; first compound 0.1 µM
  relative viability: 0.83
[1]; first compound 1 µM
  relative viability: 0.719
[1]; first compound 3.162 µM
  relative viability: 0.44
[2]; first compound 0.02 µM
  relative viability: 0.835
[2]; first compound 0.06325 µM
  relative viability: 0.699
[2]; first compound 0.2 µM
  relative viability: 0.905
[2]; first compound 0.6325 µM
  relative viability: 0.853
[2]; first compound 2 µM
  relative viability: 0.759
[3]; first compound 0.02 µM
  relative viability: 0.307
[3]; first compound 0.06325 µM
  relative viability: 0.355
[3]; first compound 0.2 µM
  relative viability: 0.537
[3]; first compound 0.6325 µM
  relative viability: 0.354
[3]; first compound 2 µM
  relative viability: 0.377
[4]; first compound 0.02 µM
  relative viability: 0.974
[4]; first compound 0.06325 µM
  relative viability: 1.04
[4]; first compound 0.2 µM
  relative viability: 1.06
[4]; first compound 0.6325 µM
  relative viability: 1.01
[4]; first compound 2 µM
  relative viability: 1.11
